Among the test systems are HCT-15; MDA-MB-231; A498; EKVX; RXF 393; 786-0; MDA-MB-435; UO-31; MDA-N; Hs-578T; NCI-H226; HL-60; IGROV-1; DU-145; PC-3; MOLT-4; SF-268; ACHN; RPMI-8226; SF-539.
Common to all, as to assay: NCI tumour cell line growth inhibition, 48 h

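Cultured in 96-well plates, cells were exposed to test compound for 48 hours across five concentrations. GI50 = concentration required for 50% inhibition of growth.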 Calls of active or inactive are those of the source. Cut-off read from the data, not from the text of the source: active = GI50 up to about 1.1 µM and inactive = higher.

Consider `CC(=O)O[C@H]1CC[C@@]2(C)C(=CC[C@@H]3[C@@H]2CC[C@]2(C)c4c(C)nn(-c5ccccc5)c4C[C@@H]32)C1`, for which the GI50 was 37.1 µM with HCT-15; 25.1 µM (inactive) in the test on MDA-MB-231; 24 µM (inactive) in the test with A498; 14.9 µM (inactive) in the test with EKVX; 5.42 µM (inactive) in the test on RXF 393; 13.6 µM (inactive) with 786-0. Moreover, the GI50 in the test with MDA-MB-435 is 45.7 µM (inactive); in the test on UO-31 it was 19.4 µM (inactive); with MDA-N it was 23.1 µM (inactive); with Hs-578T, 11.2 µM (inactive); in the test with NCI-H226, 36.6 µM (inactive); in the test with HL-60, 24.2 µM (inactive). The GI50 is 43.4 µM (inactive) in the test with IGROV-1; 17 µM (inactive) with DU-145; 26.7 µM (inactive) with PC-3; 13.2 µM (inactive) with MOLT-4; 62.8 µM (inactive) in the test with SF-268; 19.5 µM (inactive) in the test on ACHN.

In the case of `CN(C)CCCn1cnc2cc(Cl)c(Cl)cc21`, the GI50 with HCT-15 is over 100 µM; with MDA-MB-231, > 100 µM (inactive); in the test on RPMI-8226, 38.4 µM (inactive); in the test with A498, > 100 µM (inactive); in the test with EKVX, > 100 µM (inactive); in the test on RXF 393 it was 61.2 µM (inactive). Besides, the GI50 in the test with 786-0 was 59.6 µM (inactive); in the test with MDA-MB-435, 55.8 µM (inactive); with UO-31 it was 70 µM (inactive); in the test with MDA-N it was 34.1 µM (inactive); in the test on Hs-578T it was > 100 µM (inactive); in the test on NCI-H226, > 100 µM (inactive). For the same molecule, the GI50 with HL-60 was > 100 µM (inactive); in the test on IGROV-1 it was 56.4 µM (inactive); with DU-145 it was > 100 µM (inactive); in the test on PC-3, > 100 µM (inactive); with SF-268 it was > 100 µM (inactive); in the test on ACHN, > 100 µM (inactive).

On to `O=c1[nH]c(=O)n(COCc2ccccc2)c2ccsc12`, for which the GI50 was 29.2 µM in the test on HCT-15; > 100 µM (inactive) in the test on MDA-MB-231; > 100 µM (inactive) with RPMI-8226; > 100 µM (inactive) with A498; 22.2 µM (inactive) with EKVX; > 100 µM (inactive) in the test on RXF 393. For the same molecule, the GI50 with 786-0 was > 100 µM (inactive); in the test with MDA-MB-435, > 100 µM (inactive); in the test on MDA-N, > 100 µM (inactive); in the test on Hs-578T it was 49.1 µM (inactive); in the test on NCI-H226, > 100 µM (inactive); with SF-539 it was 66.8 µM (inactive). The GI50 with HL-60 is > 10 µM (inactive); in the test with IGROV-1, > 100 µM (inactive); in the test with DU-145, > 100 µM (inactive); with PC-3, 61.9 µM (inactive); with MOLT-4, > 100 µM (inactive); in the test on SF-268 it was > 100 µM (inactive). The GI50 in the test with ACHN is > 100 µM (inactive).

`COC(=O)CN(CC1O[C@@H]2OC(C)(C)O[C@@H]2C1NC(C)=O)C(=O)OCc1ccccc1` (stereo partly specified): the GI50 in the test with HCT-15 is over 100 µM; in the test on MDA-MB-231, > 100 µM (inactive); in the test with RPMI-8226, > 100 µM (inactive); in the test on A498 it was > 100 µM (inactive); with EKVX it was > 100 µM (inactive); in the test on 786-0 it was > 100 µM (inactive). The GI50 in the test with MDA-MB-435, with UO-31, in the test with MDA-N, in the test on Hs-578T, in the test with NCI-H226 and with SF-539 was > 100 µM (inactive) each time. Moreover, the GI50 in the test on HL-60, with IGROV-1, with DU-145, in the test on PC-3, in the test on MOLT-4 and with SF-268 was > 100 µM (inactive) throughout. Moreover, the GI50 in the test with ACHN is > 100 µM (inactive).

For `CCOC(=O)c1c(NC(=O)c2ccc(OC)cc2)sc2c1CCCC2`, the GI50 with MDA-MB-231, with RPMI-8226, in the test on A498, in the test on EKVX, in the test with RXF 393 and with 786-0 was > 100 µM (inactive) each time. In addition, the GI50 with MDA-MB-435, in the test with UO-31, in the test on MDA-N, in the test with Hs-578T, in the test with NCI-H226 and in the test with SF-539 was > 100 µM (inactive) throughout. The GI50 was 2.25 µM (inactive) in the test on HL-60; > 100 µM (inactive) with IGROV-1; > 100 µM (inactive) with DU-145; > 100 µM (inactive) with PC-3; > 100 µM (inactive) in the test on MOLT-4; > 100 µM (inactive) with SF-268. The GI50 with ACHN is > 100 µM (inactive).

Take `NNC(=O)Cc1cccnc1`: the GI50 with HCT-15 is over 100 µM; with MDA-MB-231, > 100 µM (inactive); with RPMI-8226 it was > 100 µM (inactive); in the test with A498 it was > 100 µM (inactive); in the test with EKVX, > 100 µM (inactive); with RXF 393, > 100 µM (inactive). In addition, the GI50 in the test on 786-0, with MDA-MB-435, with UO-31, in the test with MDA-N, with Hs-578T and in the test with SF-539 was > 100 µM (inactive) each time. The GI50 in the test on HL-60, in the test on IGROV-1, with DU-145, with PC-3, in the test on MOLT-4 and in the test with SF-268 was > 100 µM (inactive) in each case. Further, the GI50 with ACHN is > 100 µM (inactive).

For `Cc1csc2c(P(=O)(OC(C)C)OC(C)C)c(-c3ccccc3)cn12`, the GI50 in the test on HCT-15 was 15.9 µM; with MDA-MB-231 it was 17 µM (inactive); in the test on RPMI-8226, 16.3 µM (inactive); in the test with A498, 18.7 µM (inactive); with EKVX, 17.2 µM (inactive); in the test with RXF 393, 17.5 µM (inactive). Also, the GI50 in the test with 786-0 is 15.7 µM (inactive); in the test with MDA-MB-435, 21.5 µM (inactive); in the test on UO-31, 15.3 µM (inactive); in the test on MDA-N, 17.9 µM (inactive); in the test with Hs-578T, 17.1 µM (inactive); in the test with SF-539 it was 18.3 µM (inactive). Moreover, the GI50 with HL-60 was 19 µM (inactive); in the test with IGROV-1 it was 15.4 µM (inactive); in the test with DU-145 it was 18.5 µM (inactive); with PC-3, 14.8 µM (inactive); in the test with MOLT-4 it was 13 µM (inactive); with SF-268 it was 16.6 µM (inactive). Moreover, in the test on ACHN, the GI50 is 15 µM (inactive).

For the molecule `Cc1cc2c(cc1-c1cc3c(cc1C)C(C(C)C)=C(O)C(=O)/C3=C\Nc1ccccn1)/C(=C/Nc1ccccn1)C(=O)C(O)=C2C(C)C`, the GI50 in the test on HCT-15 was 33.9 µM; in the test with MDA-MB-231, 94.6 µM (inactive); in the test on RPMI-8226, 21.7 µM (inactive); in the test with A498, > 100 µM (inactive); in the test with EKVX it was 37.8 µM (inactive); in the test on RXF 393, 45.5 µM (inactive). Also, the GI50 in the test on 786-0 was 52.2 µM (inactive); with MDA-MB-435 it was 43.5 µM (inactive); in the test on MDA-N it was 76.7 µM (inactive); in the test on Hs-578T it was 32 µM (inactive); in the test on NCI-H226 it was 23 µM (inactive); in the test with SF-539, 85.1 µM (inactive). In addition, the GI50 is 27.4 µM (inactive) with HL-60; 31.1 µM (inactive) in the test on IGROV-1; > 100 µM (inactive) in the test on DU-145; 41.7 µM (inactive) in the test on PC-3; 25.7 µM (inactive) with MOLT-4; 30.3 µM (inactive) in the test with SF-268. Moreover, the GI50 in the test with ACHN is 43.3 µM (inactive).

In the case of `c1ccc(CCNCc2ccco2)nc1`, the GI50 was over 100 µM in the test on HCT-15; > 100 µM (inactive) in the test with MDA-MB-231; > 100 µM (inactive) in the test with A498; > 100 µM (inactive) with EKVX; > 100 µM (inactive) in the test with RXF 393; > 100 µM (inactive) in the test on 786-0. The GI50 in the test with MDA-MB-435, in the test with UO-31, with MDA-N, in the test on Hs-578T, in the test with NCI-H226 and with SF-539 was > 100 µM (inactive) each time. Also, the GI50 with HL-60, in the test on IGROV-1, in the test on DU-145, in the test on PC-3, with MOLT-4 and in the test with SF-268 was > 100 µM (inactive) each time. Moreover, in the test with ACHN, the GI50 was > 100 µM (inactive).

In the case of `CC(=O)OCC1OC(SC2=N/C(=C\c3ccc(Br)s3)C(=O)N2CN2CCOCC2)C(OC(C)=O)C(OC(C)=O)C1OC(C)=O` (stereo unspecified), the GI50 was 16.6 µM in the test with HCT-15; 26.7 µM (inactive) in the test on MDA-MB-231; 5.97 µM (inactive) in the test with RPMI-8226; 20.5 µM (inactive) in the test on A498; 8.22 µM (inactive) in the test on EKVX; 16.7 µM (inactive) in the test on 786-0. Further, the GI50 is 23.8 µM (inactive) with MDA-MB-435; 15.5 µM (inactive) with UO-31; 18 µM (inactive) in the test on MDA-N; 19.5 µM (inactive) in the test on Hs-578T; 11.3 µM (inactive) in the test on NCI-H226; 3.77 µM (inactive) in the test with HL-60. In addition, the GI50 in the test on IGROV-1 was 16.8 µM (inactive); in the test on DU-145 it was 16.5 µM (inactive); in the test on PC-3, 23 µM (inactive); in the test with MOLT-4, 20 µM (inactive); in the test with SF-268 it was 32.8 µM (inactive); in the test on ACHN, 16.2 µM (inactive).

On to `COc1ccc(-n2c(=O)n(C)c(=O)n2-c2ccc(OC)cc2)cc1`, for which the GI50 is over 100 µM in the test on HCT-15; > 100 µM (inactive) with MDA-MB-231; > 100 µM (inactive) with RPMI-8226; > 100 µM (inactive) with A498; > 100 µM (inactive) in the test on EKVX; > 100 µM (inactive) in the test with 786-0. The GI50 in the test on MDA-MB-435 is > 100 µM (inactive); with UO-31, > 100 µM (inactive); in the test on MDA-N, > 100 µM (inactive); with Hs-578T, 9.48 µM (inactive); with NCI-H226, > 100 µM (inactive); with SF-539, > 100 µM (inactive). The GI50 in the test with HL-60, with IGROV-1, in the test on DU-145, in the test on PC-3, in the test with MOLT-4 and with SF-268 was > 100 µM (inactive) throughout. In addition, the GI50 in the test with ACHN was > 100 µM (inactive).
